How the values were obtained:
[1] = target: T1, Peroxisome proliferator-activated receptor gamma (Homo sapiens, UniProt P37231); experiment: In vitro binding affinity for PPAR-gamma
T1 sequence (P37231 whole entry): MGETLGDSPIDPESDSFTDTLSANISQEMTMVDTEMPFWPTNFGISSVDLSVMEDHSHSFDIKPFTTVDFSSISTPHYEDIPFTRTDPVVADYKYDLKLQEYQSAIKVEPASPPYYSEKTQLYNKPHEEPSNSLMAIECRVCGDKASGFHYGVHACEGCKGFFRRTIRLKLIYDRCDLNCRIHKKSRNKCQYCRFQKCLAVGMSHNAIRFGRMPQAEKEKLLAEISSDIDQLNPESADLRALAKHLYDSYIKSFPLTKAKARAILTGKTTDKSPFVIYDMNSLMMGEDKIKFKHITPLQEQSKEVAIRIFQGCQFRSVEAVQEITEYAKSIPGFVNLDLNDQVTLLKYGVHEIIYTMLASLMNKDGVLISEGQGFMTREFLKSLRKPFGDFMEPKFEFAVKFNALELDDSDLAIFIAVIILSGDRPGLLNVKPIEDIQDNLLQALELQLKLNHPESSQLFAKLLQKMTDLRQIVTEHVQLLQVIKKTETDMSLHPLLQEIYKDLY

[2] = target: T2, Peroxisome proliferator-activated receptor delta (Homo sapiens, UniProt Q03181); experiment: In vitro binding affinity for PPAR-delta
T2 sequence (Q03181 whole entry): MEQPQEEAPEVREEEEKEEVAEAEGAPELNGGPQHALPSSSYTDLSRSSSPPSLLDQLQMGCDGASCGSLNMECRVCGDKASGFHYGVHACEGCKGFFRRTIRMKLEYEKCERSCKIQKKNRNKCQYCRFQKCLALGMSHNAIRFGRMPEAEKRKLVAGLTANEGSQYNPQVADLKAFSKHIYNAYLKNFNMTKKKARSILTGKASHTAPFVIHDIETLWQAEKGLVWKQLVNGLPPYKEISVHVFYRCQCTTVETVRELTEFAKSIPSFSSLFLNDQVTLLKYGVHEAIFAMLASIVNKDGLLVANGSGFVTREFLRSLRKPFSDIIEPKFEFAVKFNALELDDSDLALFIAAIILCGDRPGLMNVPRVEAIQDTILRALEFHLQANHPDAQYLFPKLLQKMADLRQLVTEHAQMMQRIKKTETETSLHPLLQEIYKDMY

[3] = In vitro binding affinity for PPAR-alpha; set-up: species or system Homo sapiens
[4] = target: T1, Peroxisome proliferator-activated receptor gamma; experiment: Effective concentration required to produce 50% of maximal reporter activity in cell based transactivation assay using human PPAR-gamma-GAL4 chimeric receptor; 6% response at 3 uM ccompound concentration; assay type: functional
[5] = target: T3, Peroxisome proliferator-activated receptor alpha (Canis lupus familiaris, UniProt Q95N78); experiment: Effective concentration against canine PPAR-alpha in Gal4 transactivation assay
T3 sequence (Q95N78 whole entry): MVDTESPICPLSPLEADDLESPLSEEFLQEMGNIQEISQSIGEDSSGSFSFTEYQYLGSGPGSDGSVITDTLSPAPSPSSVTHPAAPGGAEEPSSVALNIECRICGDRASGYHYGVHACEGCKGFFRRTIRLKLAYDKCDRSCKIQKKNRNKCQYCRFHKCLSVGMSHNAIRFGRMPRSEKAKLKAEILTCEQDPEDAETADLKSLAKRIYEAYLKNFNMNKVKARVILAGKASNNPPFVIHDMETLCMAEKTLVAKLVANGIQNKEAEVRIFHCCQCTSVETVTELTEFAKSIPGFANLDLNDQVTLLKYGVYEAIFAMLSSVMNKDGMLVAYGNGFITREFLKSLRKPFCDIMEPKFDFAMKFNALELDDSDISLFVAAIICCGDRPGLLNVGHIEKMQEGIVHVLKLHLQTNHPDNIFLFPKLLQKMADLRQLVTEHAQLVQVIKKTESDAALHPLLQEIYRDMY

[6] = target: T1, Peroxisome proliferator-activated receptor gamma; experiment: Effective concentration against human PPAR-gamma in Gal4 transactivation assay; 12% response at 3 uM; assay type: functional
Cricetinae gen. sp. [7] = experiment: Effect at an oral dose of 0.1 mg/kg/day for 14 days on serum cholesterol level of hamster; assay type: functional, Cricetulus griseus
Cricetinae gen. sp. [8] = experiment: Effect at an oral dose of 0.3 mg/kg/day for 14 days on serum triglyceride level of hamster; assay type: functional, Cricetulus griseus
Cricetinae gen. sp. [9] = experiment: Effect at an oral dose of 0.3 mg/kg/day for 14 days on serum cholesterol level of hamster; assay type: functional, Cricetulus griseus
[10] = target: T1, Peroxisome proliferator-activated receptor gamma; experiment: Effective concentration against human PPAR-gamma in Gal4 transactivation assay; 25% response at 3 uM; assay type: functional
Cricetinae gen. sp. [11] = experiment: Effect at an oral dose of 0.1 mg/kg/day for 14 days on serum triglyceride level of hamster; assay type: functional, Cricetulus griseus
[12] = target: T4, Peroxisome proliferator-activated receptor alpha (Homo sapiens, UniProt Q07869); experiment: Effective concentration against human PPAR-alpha in Gal4 transactivation assay; assay type: functional
T4 sequence (Q07869 whole entry): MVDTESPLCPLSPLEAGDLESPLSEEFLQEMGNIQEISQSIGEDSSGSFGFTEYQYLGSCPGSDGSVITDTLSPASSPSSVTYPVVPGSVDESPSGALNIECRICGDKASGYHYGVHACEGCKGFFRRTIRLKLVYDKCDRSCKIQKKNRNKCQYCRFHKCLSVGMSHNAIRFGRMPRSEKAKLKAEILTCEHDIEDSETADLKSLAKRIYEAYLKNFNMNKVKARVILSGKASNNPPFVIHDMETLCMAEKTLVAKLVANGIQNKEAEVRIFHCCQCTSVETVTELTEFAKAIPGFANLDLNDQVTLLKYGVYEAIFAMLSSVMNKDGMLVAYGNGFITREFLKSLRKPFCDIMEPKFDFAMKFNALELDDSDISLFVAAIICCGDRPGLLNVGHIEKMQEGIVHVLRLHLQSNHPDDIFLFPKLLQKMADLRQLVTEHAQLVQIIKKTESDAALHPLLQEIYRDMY

[13] = target: T1, Peroxisome proliferator-activated receptor gamma; experiment: Effective concentration against human PPAR-gamma in Gal4 transactivation assay; 59% response at 3 uM; assay type: functional
[14] = target: T1, Peroxisome proliferator-activated receptor gamma; experiment: Effective concentration against human PPAR-gamma in Gal4 transactivation assay; assay type: functional
[15] = target: T1, Peroxisome proliferator-activated receptor gamma; experiment: Effective concentration against human PPAR-gamma in Gal4 transactivation assay; 2% response at 3 uM; assay type: functional
[16] = target: T1, Peroxisome proliferator-activated receptor gamma; experiment: Effective concentration against human PPAR-gamma in Gal4 transactivation assay; 28% response at 3 uM; assay type: functional
[17] = target: T1, Peroxisome proliferator-activated receptor gamma; experiment: Effective concentration against human PPAR-gamma in Gal4 transactivation assay; 11% response at 3 uM; assay type: functional
[18] = target: T1, Peroxisome proliferator-activated receptor gamma; experiment: Effective concentration against human PPAR-gamma in Gal4 transactivation assay; 19% response at 3 uM; assay type: functional
[19] = target: T1, Peroxisome proliferator-activated receptor gamma; experiment: Effective concentration against human PPAR-gamma in Gal4 transactivation assay; 56% response at 3 uM; assay type: functional
[20] = target: T1, Peroxisome proliferator-activated receptor gamma; experiment: Effective concentration against human PPAR-gamma in Gal4 transactivation assay; 4% response at 3 uM; assay type: functional
[21] = target: T1, Peroxisome proliferator-activated receptor gamma; experiment: Effective concentration against human PPAR-gamma in Gal4 transactivation assay; 30% response at 3 uM; assay type: functional

SMILES | IC50 [1] | IC50 [2] | IC50 [3] | EC50 [5] | EC50 [12] | also measured
O=C(O)C1(Cc2ccccc2)Cc2cc(OCCCOc3ccc(OC(F)(F)F)cc3Cl)ccc2O1 (racemic) | > 15000 nM | > 50000 nM | 275 nM |  |  | 
CC(C)(C)C1(C(=O)O)Cc2cc(OCCCOc3ccc(CC(F)(F)F)cc3Cl)ccc2O1 (racemic) | > 15000 nM | > 50000 nM | 7 nM | 2 nM |  | EC50 [4]: > 3000 nM
CCC1(C(=O)O)Cc2ccc(OCCCOc3ccc(OC(F)(F)F)cc3Cl)cc2O1 (stereo not drawn) | 3220 nM | 1190 nM | 22 nM | < 1 nM |  | 
CCC1(C(=O)O)Cc2cc(OCCCOc3ccc(CC(C)(C)C)cc3Cl)ccc2O1 (racemic) | 5600 nM | > 50000 nM | 4 nM | 2 nM |  | EC50 [6]: > 3000 nM
CC(C)[C@@]1(C(=O)O)Cc2cc(OCCCOc3ccc(OC(F)(F)F)cc3Cl)ccc2O1 | > 15000 nM | > 15000 nM | 3 nM | < 1 nM |  | TC (Cricetinae gen. sp. [7]): -43%; TG (Cricetinae gen. sp. [8]): -52%; TC (Cricetinae gen. sp. [9]): -54%; EC50 [10]: > 3000 nM; TG (Cricetinae gen. sp. [11]): -52%
CCCc1cc(SC(F)(F)F)ccc1OCCCOc1ccc2c(c1)CC(CC)(C(=O)O)O2 (racemic) | 3110 nM | 5230 nM | 11 nM | < 1 nM | 8 nM | EC50 [13]: > 3000 nM
CC[C@@]1(C(=O)O)Cc2cc(OCCCOc3ccc(CCC(F)(F)F)cc3Cl)ccc2O1 | > 15000 nM | > 15000 nM | 21 nM | 2 nM |  | 
CC1(C(=O)O)Cc2cc(OCCCOc3ccc(OCC(F)(F)F)cc3Cl)ccc2O1 (racemic) | > 15000 nM | > 15000 nM | 106 nM | 42 nM | 138 nM | EC50 [14]: > 3000 nM
CC(C)(C)[C@@]1(C(=O)O)Cc2cc(OCCOc3ccc(OC(F)(F)F)cc3Cl)ccc2O1 | > 50000 nM | > 50000 nM | 1390 nM |  |  | 
O=C(O)C1(C(F)(F)F)Cc2cc(OCCCOc3ccc(CC(F)(F)F)cc3Cl)ccc2O1 (racemic) | > 15000 nM | 399 nM | 9 nM | 26 nM | 37 nM | EC50 [15]: > 3000 nM
CC[C@@]1(C(=O)O)Cc2cc(OCCCOc3ccc(CC(F)(F)F)cc3Cl)ccc2O1 | > 15000 nM | > 15000 nM | 4 nM | < 1 nM | 2 nM | EC50 [16]: > 3000 nM; TC (Cricetinae gen. sp. [7]): -33%; TG (Cricetinae gen. sp. [8]): -26%; TC (Cricetinae gen. sp. [9]): -37%; TG (Cricetinae gen. sp. [11]): -13%
O=C(O)C1Cc2cc(OCCCOc3ccc(OCC(F)(F)F)cc3Cl)ccc2O1 (racemic) | > 15000 nM | > 15000 nM | 786 nM | 1350 nM |  | 
CC(C)[C@@]1(C(=O)O)Cc2cc(OCCCOc3cc(C(F)(F)F)ccc3Cl)ccc2O1 | > 15000 nM | > 15000 nM | 162 nM | 42 nM | 41 nM | EC50 [17]: > 3000 nM
CCC1(C(=O)O)Cc2cc(OCCCOc3ccc(OCC(F)(F)F)cc3Cl)ccc2O1 (racemic) | > 15000 nM | > 15000 nM | 32 nM | 8 nM | 34 nM | EC50 [18]: > 3000 nM
CCC1(C(=O)O)Cc2cc(OCCCOc3ccc(C(C)(C)C)cc3Cl)ccc2O1 (racemic) | 4330 nM | > 15000 nM | 17 nM | 20 nM | 9 nM | EC50 [19]: > 3000 nM
CCC1(C(=O)O)Cc2cc(OCCCOc3ccc(C(F)(F)F)cc3Cl)ccc2O1 (racemic) | > 15000 nM | 834 nM | 42 nM |  |  | 
CC[C@@]1(C(=O)O)Cc2cc(OCCCOc3ccc(OCC(F)(F)F)cc3)ccc2O1 | > 50000 nM | > 15000 nM | 231 nM | 130 nM |  | 
CC(C)[C@]1(C(=O)O)Cc2cc(OCCCOc3ccc(OC(F)(F)F)cc3Cl)ccc2O1 | > 50000 nM | > 15000 nM | 1280 nM |  |  | 
CC[C@]1(C(=O)O)Cc2cc(OCCCOc3ccc(OC(F)(F)F)cc3Cl)ccc2O1 | > 15000 nM | > 50000 nM | 2230 nM |  |  | 
CC(C)[C@@]1(C(=O)O)Cc2cc(OCCOc3ccc(OC(F)(F)F)cc3Cl)ccc2O1 | > 50000 nM | > 50000 nM | 264 nM | 10 nM | 57 nM | EC50 [20]: > 3000 nM
CCC1(C(=O)O)Cc2cc(OCCCOc3ccc(SC(F)(F)F)cc3Cl)ccc2O1 (racemic) | 6770 nM | > 15000 nM | 3 nM | < 1 nM | 3 nM | EC50 [21]: > 3000 nM
